Data as given in US4719214A, “Carbocyclic analogues of thymine nucleosides” (priority 1985, dated 1988).
Values after ≈ are worked out from the molar mass of the structure shown. Values joined by “and” are separate entries in the source; they are usually repeats but may differ in a detail not shown here. Identical values can stand only once. “Also recorded” adds a separate entry of the source. Like-named read-outs stand apart in the source and are kept apart here.

What was measured:
[1] = system: Herpes Simplex Virus Type 1, Strain 377; assay: Antiviral activity vs. herpes simplex virus type 1 replicating in Vero cells (virus-induced cytopathogenic effects); type: cell-based; conditions: for antiviral activity vs. HSV-1 (in words): HSV-1, Table 1 summary; for Virus rating (VR): 0.5-0.9 marginal to moderate, >=1 definite antiviral activity; for EC50: Human alphaherpesvirus 1, Vero, read-out: MIC50 (minimum inhibitory concentration, 50%)
Protocol: (§1) The MIC50 (minimum inhibitory concentration, 50%) is the concentration of a test compound required for 50% inhibition of virus-induced cytopathogenic effects.
(§2) ^a Antiviral evaluations were performed with HSV1 or HSV2 replicating

[2] = system: Herpes Simplex Virus Type 2, Strain MS; assay: Antiviral activity vs. herpes simplex virus type 2 replicating in Vero cells (virus-induced cytopathogenic effects); type: cell-based; conditions: for antiviral activity vs. HSV-2 (in words): HSV-2, Table 1 summary; for Virus rating (VR): 0.5-0.9 marginal to moderate, >=1 definite antiviral activity; for EC50: Human alphaherpesvirus 2, Vero, read-out: MIC50 (minimum inhibitory concentration, 50%)
Protocol: as §1, §2

[3] = system: thymidine phosphorylase; conditions: isolated from human blood platelets; cited from earlier work
[4] = rats; cited from earlier work
[5] = HSV-1 strain 377, Vero cells, 50% inhibition of virus-induced cytopathogenic effects
[6] = HSV-2 strain MS, Vero cells, 50% inhibition of virus-induced cytopathogenic effects
[7] = listed as carbocyclic analogue of 5-ethynyl-2'-deoxyuridine

Compound | antiviral activity vs. HSV-1 (in words) [1] | Virus rating (VR) ([1]; HSV-1 strain 377, Vero cells) | EC50 [1, 5] | antiviral activity vs. HSV-2 (in words) [2] | Virus rating (VR) ([2]; HSV-2 strain MS, Vero cells) | EC50 [2, 6] | EC50 [1] | EC50 [2] | substrate for thymidine phosphorylase [3] | other results
CCc1cn([C@@H]2C[C@H](CO)[C@@H](O)C2)c(=O)[nH]c1=O (relative stereo) [C-EDU, 5-Ethyl-1-[(1α,3β,4α)-3-Hydroxy-4-(hydroxymethyl)cyclopentyl]-2,4(1H,3H)-pyrimidinedione] | comparable to those of 9-β-D-arabinofuranosyladenine (Ara-A); also recorded: as active vs. HSV-1 as is the corresponding true nucleoside, 5-ethyl-2'-deoxyuridine (EDU); also recorded: inhibits the replication | 2.4 and 2.1 | 45 µg/mL (≈ 177 µM) | comparable to those of 9-β-D-arabinofuranosyladenine (Ara-A); also recorded: definite and significant activity against HSV-2; also recorded: inhibits the replication | 1.1 | 227 µg/mL (≈ 893 µM) | – | – | – | MIC50 (minimum inhibitory concentration, 50%) [1, 5]: 69 µg/mL (≈ 271 µM); MIC50 (minimum inhibitory concentration, 50%) [2, 6]: 178 µg/mL (≈ 700 µM)
C#Cc1cn([C@@H]2C[C@H](CO)[C@@H](O)C2)c(=O)[nH]c1=O (relative stereo) [Example 4, 1-[(1α,3β,4α)-3-Hydroxy-4-(hydroxymethyl)cyclopentyl]-5-ethynyl-2,4(1H,3H)-pyrimidinedione] | significant antiviral activity | 0.9 | 253 µg/mL (≈ 1010 µM) | significant antiviral activity | 1.1 | 207 µg/mL (≈ 827 µM) | – | – | – | antiviral activity vs. HSV-1 (in words) [1, 7]: significant, selective activity; antiviral activity vs. HSV-2 (in words) [2, 7]: significant, selective activity
C[Si](C)(C)CCc1cn([C@@H]2C[C@H](CO)[C@@H](O)C2)c(=O)[nH]c1=O (relative stereo) [Example 7, 1-[(1α,3β,4α)-3-Hydroxy-4-(hydroxymethyl)cyclopentyl]-5-[2-(trimethylsilyl)ethyl]-2,4(1H,3H)-pyrimidinedione] | antiviral activity | 0.5 | – | – | – | – | 320 µg/mL (≈ 980 µM) | – | – | antiviral activity vs. HSV-1 (in words) ([1]; listed as carbocyclic analogue of 5-trimethylsilylethyl-2'-deoxyuridine): activity against HSV-1
Nc1ncnc2c1ncn2[C@@H]1O[C@H](CO)[C@@H](O)[C@@H]1O [Ara-A, 9-β-D-arabinofuranosyladenine, reference compound] | – | 2.0-2.1 | – | – | 1.3-1.7 | – | 15 to 19 µg/mL (≈ 56.1 to 71.1 µM) | 22 to 45 µg/mL (≈ 82.3 to 168 µM) | – | –
O=c1[nH]c(=O)n([C@H]2C[C@H](O)[C@@H](CO)O2)cc1/C=C/Br [BVDU, 5-[(E)-2-(bromovinyl)]-2'-deoxyuridine] | – | – | – | – | – | – | – | – | substrates for thymidine phosphorylase | –
CCc1cn([C@H]2C[C@H](O)[C@@H](CO)O2)c(=O)[nH]c1=O [EDU, 5-ethyl-2'-deoxyuridine, reference compound] | – | 2.3 | – | – | 2.2 | – | 19 µg/mL (≈ 74.1 µM) | 321 µg/mL (≈ 1250 µM) | substrates for thymidine phosphorylase | cleavage products identified as metabolites [4]: 5-ethyluracil and 5-(2-hydroxyethyl)uracil
